The NIST ThermoML archive (doi:10.1021/je8000975)
Where “and” joins values, the source holds several entries; their conditions need not be identical. Equal values may be shown once.

What was measured:
[1] = Liquid; for speed of sound: Sing-around technique in a fixed-path interferometer
[2] = xn = mol fraction of the nth substance listed; details: 101 kPa, Liquid

CCOCCO [2-ethoxyethan-1-ol]
[1]
Details | mass density [kg/m3] | speed of sound [m/s]
293.15 K | 929.545 | 1319.9
298.15 K | 925.027 | 1301.7
303.15 K | 920.457 | 1284.2

CCOCCO [2-ethoxyethan-1-ol] + COCCO
[2]
Details | mass density [kg/m3]
293.15 K, x2 = 0.1511 | 933.958
293.15 K, x2 = 0.2029 | 935.531
293.15 K, x2 = 0.3043 | 938.709
293.15 K, x2 = 0.3503 | 940.193
293.15 K, x2 = 0.5024 | 945.313
293.15 K, x2 = 0.5514 | 947.031
293.15 K, x2 = 0.6992 | 952.448
293.15 K, x2 = 0.7482 | 954.326
293.15 K, x2 = 0.798 | 956.272
293.15 K, x2 = 0.7992 | 956.321
293.15 K, x2 = 0.8504 | 958.373
293.15 K, x2 = 0.8997 | 960.393
293.15 K, x2 = 0.9488 | 962.456
298.15 K, x2 = 0.0536 | 926.563
298.15 K, x2 = 0.1039 | 928.032
298.15 K, x2 = 0.151 | 929.431
298.15 K, x2 = 0.1517 | 929.455
298.15 K, x2 = 0.3523 | 935.724
298.15 K, x2 = 0.3757 | 936.488
298.15 K, x2 = 0.4166 | 937.846
298.15 K, x2 = 0.4509 | 939.002
298.15 K, x2 = 0.5507 | 942.46
298.15 K, x2 = 0.5981 | 944.155
298.15 K, x2 = 0.7494 | 949.818
298.15 K, x2 = 0.7987 | 951.747
298.15 K, x2 = 0.8423 | 953.488
298.15 K, x2 = 0.8475 | 953.698
298.15 K, x2 = 0.9002 | 955.855
298.15 K, x2 = 0.9483 | 957.869
303.15 K, x2 = 0.1537 | 924.945
303.15 K, x2 = 0.1543 | 924.961
303.15 K, x2 = 0.2017 | 926.398
303.15 K, x2 = 0.2495 | 927.868
303.15 K, x2 = 0.3013 | 929.498
303.15 K, x2 = 0.402 | 932.768
303.15 K, x2 = 0.4505 | 934.39
303.15 K, x2 = 0.4985 | 936.037
303.15 K, x2 = 0.5505 | 937.856
303.15 K, x2 = 0.5979 | 939.553
303.15 K, x2 = 0.6504 | 941.473
303.15 K, x2 = 0.6979 | 943.248
303.15 K, x2 = 0.7488 | 945.193
303.15 K, x2 = 0.7998 | 947.188
303.15 K, x2 = 0.9001 | 951.244

COCCO [2-methoxyethan-1-ol]
[1]
Details | mass density [kg/m3] | speed of sound [m/s]
293.15 K | 964.656 | 1359.2
298.15 K | 960.088 | 1341.6
303.15 K | 955.471 | 1324.3

CCCOCCO [2-propoxyethanol]
[1]
Details | mass density [kg/m3] | speed of sound [m/s]
293.15 K | 911.515 | 1316.6
298.15 K | 907.151 | 1298.6
303.15 K | 902.736 | 1281.1

CCCOCCO [2-propoxyethanol] + CCCCOCCCC
[2]
Details | mass density
293.15 K, x1 = 0.0625 | 774.485 kg/m3
293.15 K, x1 = 0.1231 | 780.612 kg/m3
293.15 K, x1 = 0.1827 | 786.927 kg/m3
293.15 K, x1 = 0.2394 | 793.199 kg/m3
293.15 K, x1 = 0.2492 | 794.319 kg/m3
293.15 K, x1 = 0.2944 | 799.55 kg/m3
293.15 K, x1 = 0.2949 | 799.613 kg/m3
293.15 K, x1 = 0.3486 | 806.069 kg/m3
293.15 K, x1 = 0.4023 | 812.805 kg/m3
293.15 K, x1 = 0.4544 | 819.603 kg/m3
293.15 K, x1 = 0.4567 | 819.921 kg/m3
293.15 K, x1 = 0.5556 | 833.65 kg/m3
293.15 K, x1 = 0.599 | 840.02 kg/m3
293.15 K, x1 = 0.6019 | 840.448 kg/m3
293.15 K, x1 = 0.6498 | 847.778 kg/m3
293.15 K, x1 = 0.6536 | 848.363 kg/m3
293.15 K, x1 = 0.7431 | 862.909 kg/m3
293.15 K, x1 = 0.8304 | 878.188 kg/m3
293.15 K, x1 = 0.8329 | 878.643 kg/m3
293.15 K, x1 = 0.875 | 886.46 kg/m3
293.15 K, x1 = 0.9173 | 894.637 kg/m3
293.15 K, x1 = 0.9567 | 902.506 kg/m3
293.15 K, x1 = 0.9568 | 902.528 kg/m3
298.15 K, x1 = 0.0551 | 769.407 kg/m3
298.15 K, x1 = 0.0626 | 770.132 kg/m3
298.15 K, x1 = 0.1039 | 774.248 kg/m3
298.15 K, x1 = 0.1246 | 776.381 kg/m3
298.15 K, x1 = 0.1556 | 779.622 kg/m3
298.15 K, x1 = 0.2367 | 788.484 kg/m3
298.15 K, x1 = 0.2393 | 788.779 kg/m3
298.15 K, x1 = 0.2922 | 794.872 kg/m3
298.15 K, x1 = 0.3545 | 802.367 kg/m3
298.15 K, x1 = 0.4014 | 808.252 kg/m3
298.15 K, x1 = 0.4031 | 808.491 kg/m3
298.15 K, x1 = 0.455 | 815.247 kg/m3
298.15 K, x1 = 0.5006 | 821.438 kg/m3
298.15 K, x1 = 0.5043 | 821.944 kg/m3
298.15 K, x1 = 0.5521 | 828.692 kg/m3
298.15 K, x1 = 0.6483 | 843.112 kg/m3
298.15 K, x1 = 0.6976 | 850.944 kg/m3
298.15 K, x1 = 0.6984 | 851.074 kg/m3
298.15 K, x1 = 0.6993 | 851.218 kg/m3
298.15 K, x1 = 0.7502 | 859.679 kg/m3
298.15 K, x1 = 0.7902 | 866.584 kg/m3
298.15 K, x1 = 0.8325 | 874.153 kg/m3 and 874.166 kg/m3
298.15 K, x1 = 0.9152 | 889.815 kg/m3
298.15 K, x1 = 0.9163 | 890.027 kg/m3
298.15 K, x1 = 0.9571 | 898.214 kg/m3
298.15 K, x1 = 0.9581 | 898.407 kg/m3
303.15 K, x1 = 0.0645 | 765.959 kg/m3
303.15 K, x1 = 0.1249 | 772.015 kg/m3
303.15 K, x1 = 0.1826 | 778.083 kg/m3
303.15 K, x1 = 0.2383 | 784.22 kg/m3 and 784.216 kg/m3
303.15 K, x1 = 0.3481 | 797.121 kg/m3
303.15 K, x1 = 0.4032 | 804.021 kg/m3
303.15 K, x1 = 0.4542 | 810.67 kg/m3
303.15 K, x1 = 0.4567 | 810.994 kg/m3
303.15 K, x1 = 0.5058 | 817.67 kg/m3
303.15 K, x1 = 0.5547 | 824.595 kg/m3
303.15 K, x1 = 0.5548 | 824.612 kg/m3
303.15 K, x1 = 0.5997 | 831.213 kg/m3
303.15 K, x1 = 0.6542 | 839.567 kg/m3
303.15 K, x1 = 0.6988 | 846.673 kg/m3
303.15 K, x1 = 0.7434 | 854.06 kg/m3
303.15 K, x1 = 0.7899 | 862.072 kg/m3
303.15 K, x1 = 0.8319 | 869.613 kg/m3
303.15 K, x1 = 0.8764 | 877.879 kg/m3
303.15 K, x1 = 0.9168 | 885.687 kg/m3 and 885.692 kg/m3
303.15 K, x1 = 0.9553 | 893.42 kg/m3
303.15 K, x1 = 0.9575 | 893.858 kg/m3
